The subject of this experiment is hypoxia-inducible endogenous VEGF expression in HeLa cells. In words: Hypoxia-inducible endogenous VEGF expression, VEGF ELISA of conditioned media (dose-response EC50). It counts as cell-based. Conditions: HeLa cells, hypoxic conditions (1% O2). In short, it runs like this: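 Secreted VEGF was quantified by ELISA against a per-assay standard curve after HeLa cells spent 24-48 h in 1% O2, 5% CO2, N2 balance with or without compound. Across a series of, e.g., seven concentrations, percentage inhibition (max 100%, min 0%) gave EC50 and CC50 values.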

A word on the EC50: it is the midpoint of the concentration-response curve.

Under “Homo sapiens”, `CC(C)C1NCCc2c1[nH]c1ccc(Cl)cc21` (stereo not shown) [Compound 477] registered an EC50 of 40 to 200 nM.

In the case of `CCOC(=O)N1CCc2c([nH]c3ccc(Br)cc23)C1c1ccc(C(=O)N2CCN(C)CC2)cc1` (stereo not shown) [Compound 478], the EC50 (Homo sapiens) was in the range of 40 to 200 nM.

Take `CN(C)CCCOc1ccc(C2c3[nH]c4ccc(Cl)cc4c3CCN2C(=O)Oc2ccc(Cl)cc2)cc1` (stereo not shown) [Compound 479]: the EC50 fell in the range of 40 to 200 nM.

`CCOC(=O)N1CCc2c([nH]c3ccc(Br)cc23)C1c1ccc(C(=O)NC)cc1` (stereo not shown) [Compound 480] displayed an EC50 (Homo sapiens) of 40 to 200 nM.

`CCOC(=O)N1CCc2c([nH]c3ccc(Cl)cc23)C1c1ccc(C(=O)N2CCN(C3CCCCC3)CC2)cc1` (stereo not shown) [Compound 481]: where the note is “Homo sapiens”, the EC50 was in the range of 40 to 200 nM.

Compound `CC(C)C(=O)Nc1ccc(C2c3[nH]c4ccc(Cl)cc4c3CCN2C(=O)Oc2ccc(Cl)cc2)cc1` (stereo not shown) [Compound 482] yielded an EC50 (Homo sapiens) of 40 to 200 nM.

With `CCOC(=O)N1CCc2c([nH]c3ccc(Br)cc23)C1c1ccc(C(=O)N(C)C)cc1` (stereo not shown) [Compound 483], the EC50 (Homo sapiens) lay in the range of 40 to 200 nM.

Regarding `CCOC(=O)N1CCc2c([nH]c3ccc(Br)cc23)C1c1ccc(C(=O)N2CCCN(C)CC2)cc1` (stereo not shown) [Compound 484], the EC50 (Homo sapiens) lay in the range of 40 to 200 nM.

Compound `COC(=O)C(=O)N1CCc2c([nH]c3ccc(Cl)cc23)C1c1ccc(OC)cc1` (stereo not shown) [Compound 485] had an EC50 (Homo sapiens) of 40 to 200 nM.

In turn, `CCOC(=O)N1CCc2c([nH]c3ccc(Cl)cc23)C1CC(C)(C)C` (stereo not shown) [Compound 486] had an EC50 (Homo sapiens) of 40 to 200 nM.

In turn, `CCOC(=O)N1CCc2c([nH]c3ccc(Cl)cc23)C1c1ccc(S(=O)(=O)N2CCOCC2)cc1` (stereo not shown) [Compound 487] registered an EC50 (Homo sapiens) of 40 to 200 nM.

Consider `CCOC(=O)N1CCc2c([nH]c3ccc(Br)cc23)C1c1ccc(C(=O)NCCN2CCOCC2)cc1` (stereo not shown) [Compound 488], for which the EC50 (Homo sapiens) lay in the range of 40 to 200 nM.

As to `CC(C)OC(=O)Nc1ccc(C2c3[nH]c4ccc(Cl)cc4c3CCN2C(=O)Oc2ccc(Cl)cc2)cc1` (stereo not shown) [Compound 489], the EC50 (Homo sapiens) lay in the range of 40 to 200 nM.

Compound `CCOC(=O)N1CCc2c([nH]c3ccc(Br)cc23)C1c1ccc(C(=O)NCCO)cc1` (stereo not shown) [Compound 490] gave an EC50 (Homo sapiens) of 40 to 200 nM.

`CN(C)CC(=O)Nc1ccc(C2c3[nH]c4ccc(Cl)cc4c3CCN2C(=O)Oc2ccc(Cl)cc2)cc1` (stereo not shown) [Compound 491]: where the note is “Homo sapiens”, the EC50 was in the range of 40 to 200 nM.

Regarding `CCOC(=O)N1CCc2c([nH]c3ccc(Cl)cc23)C1c1ccc(C(=O)N2CCOCC2)cc1` (stereo not shown) [Compound 492], the EC50 (Homo sapiens) fell in the range of 40 to 200 nM.

Take `CN(C)CCCOc1ccc(C2c3[nH]c4ccc(Cl)cc4c3CCN2C(=O)Oc2ccccc2)cc1` (stereo not shown) [Compound 493]: the EC50 (Homo sapiens) lay in the range of 40 to 200 nM.

As for `CCOC(=O)N1CCc2c([nH]c3ccc(Cl)cc23)C1c1ccc(C(=O)NCC2CCCO2)cc1` (stereo not shown) [Compound 494], the EC50 (Homo sapiens) was in the range of 40 to 200 nM.

Turning to `CCOC(=O)N1CCc2c([nH]c3ccc(Br)cc23)C1c1cnc(NC)nc1` (stereo not shown) [Compound 496], the EC50 (Homo sapiens) lay within 40 to 200 nM.

As to `CSCCC1NCCc2c1[nH]c1ccc(Cl)cc21` (stereo not shown) [Compound 497], the EC50 (Homo sapiens) lay in the range of 40 to 200 nM.

For the compound `CCOC(=O)N1CCc2c([nH]c3ccc(Cl)cc23)C1c1ccc(C(=O)N2CCN(C)CC2)cc1` (stereo not shown) [Compound 498], the EC50 (Homo sapiens) was 40 to 200 nM.

`CCOC(=O)N1CCc2c([nH]c3ccc(Cl)cc23)C1c1coc2ccccc2c1=O` (stereo not shown) [Compound 499] yielded an EC50 (Homo sapiens) of 40 to 200 nM.

The compound `C=CC(=O)Nc1ccc(C2c3[nH]c4ccc(Cl)cc4c3CCN2C(=O)Oc2ccc(Cl)cc2)cc1` (stereo not shown) [Compound 500] came in with an EC50 (Homo sapiens) of 40 to 200 nM.

Turning to `COc1ccc(OC(=O)N2CCc3c([nH]c4ccc(Cl)cc34)C2c2ccc(OCCCN(C)C)cc2)cc1` (stereo not shown) [Compound 501], under “Homo sapiens”, the EC50 lay in the range of 40 to 200 nM.

`Cc1ccc(OC(=O)N2CCc3c([nH]c4ccc(Cl)cc34)C2c2ccc(OCCCN(C)C)cc2)cc1` (stereo not shown) [Compound 502]: under “Homo sapiens”, the EC50 is 40 to 200 nM.

Consider `CNc1ncc(C2c3[nH]c4ccc(Br)cc4c3CCN2C(=O)Oc2ccc(OC)cc2)cn1` (stereo not shown) [Compound 503], for which, for the setting “Homo sapiens”, the half-maximal effective concentration (EC50) lay in the range of 40 to 200 nM.

Turning to `CCOC(=O)N1CCc2c([nH]c3ccc(Cl)cc23)C1C1CC=CCC1` (stereo not shown) [Compound 504], under “Homo sapiens”, the EC50 lay in the range of 40 to 200 nM.

On to `CCOC(=O)N1CCc2c([nH]c3ccc(Br)cc23)C1c1ccc(C(N)=O)cc1` (stereo not shown) [Compound 505], for which, where the note is “Homo sapiens”, the EC50 lay within 40 to 200 nM.

For the origin of these results see US8076352B2, “Administration of carboline derivatives useful in the treatment of cancer and other diseases” (PTC Therapeutics, Inc., priority 2004, dated 2011).
